Values after ≈ are worked out from the molar mass of the structure shown. Active and inactive are the calls of the source. The rule behind the calls is not given here. Positions of bridges follow the written chain, without caps; N, C: chain ends. Non-standard residues stand in square brackets, D forms with d. Residues, ends and D or L forms follow the SMILES beside them. *: point of attachment. X1 = CC[C@H](C)CCCCC(=O)*; Dab = NCC[C@H](N)C(=O)O
Columns and labels:
[1] = tested on: Escherichia coli; assay: Antibacterial activity against Escherichia coli E-52 after 16 to 18 hrs by CLSI-based microbroth dilution method; format: functional; details: time 16-18 hrs
[2] = tested on: Escherichia coli; assay: Antibacterial activity against Escherichia coli ATCC 25922 after 16 to 18 hrs by CLSI-based microbroth dilution method; format: functional; details: time 16-18 hrs
[3] = Cytotoxicity against mouse 3T3 cells assessed as reduction in cell viability at 150 ug/ml after 4 hrs by MTT assay (reference value: 90.42 +/- 0.03%); format: cell-based; details: at 150 µg/mL, read-out: Activity
[4] = tested on: Cell membrane; assay: Induction of cytoplasmic membrane permeabilization in Staphylococcus aureus ATCC 33591 at 5 times MIC measured after 120 min using calcein-AM as substrate by dye based fluorescence assay relative to control; format: subcellular
[5] = tested on: Cell membrane; assay: Induction of cell membrane damage in Staphylococcus aureus ATCC 33591 at 5 times MIC assessed as loss of cell viability measured after 2 hrs by confocal microscopy
[6] = tested on: Staphylococcus aureus; assay: Antibacterial activity against methicillin susceptible Staphylococcus aureus ATCC 29213 after 16 to 18 hrs by CLSI-based microbroth dilution method; format: functional; details: time 16-18 hrs
[7] = tested on: Staphylococcus aureus; assay: Antibacterial activity against methicillin resistant Staphylococcus aureus S-30 after 16 to 18 hrs by CLSI-based microbroth dilution method; format: functional; details: time 16-18 hrs
[8] = tested on: Staphylococcus aureus; assay: Antibacterial activity against methicillin resistant Staphylococcus aureus S-33 after 16 to 18 hrs by CLSI-based microbroth dilution method; format: functional; details: time 16-18 hrs
[9] = tested on: Staphylococcus aureus; assay: Antibacterial activity against methicillin resistant Staphylococcus aureus S-41 after 16 to 18 hrs by CLSI-based microbroth dilution method; format: functional; details: time 16-18 hrs
[10] = tested on: Staphylococcus aureus; assay: Antibacterial activity against methicillin resistant Staphylococcus aureus ATCC 33591 after 16 to 18 hrs by CLSI-based microbroth dilution method; format: functional; details: time 16-18 hrs
[11] = tested on: Staphylococcus aureus; assay: Antibacterial activity against methicillin susceptible Staphylococcus aureus ATCC 29213 infected in mouse 3T3 cells assessed as bacterial load at 5 times MIC after 16 hrs (reference value: 6.6 log CFU/ml); format: functional
[12] = tested on: Staphylococcus aureus; assay: Bactericidal activity against methicillin-resistant Staphylococcus aureus assessed as complete bacterial killing at 5 times MIC measured after 6 hrs by time-kill assay; format: functional, organism-based
[13] = tested on: Cell membrane; assay: Induction of cytoplasmic membrane permeabilization in Staphylococcus aureus ATCC 33591 at 5 times MIC measured after 2 min using calcein-AM as substrate by dye based fluorescence assay relative to control; format: subcellular
[14] = Hemolytic activity in mouse RBC at 150 ug/ml after 1 hr by microplate reader analysis relative to control; format: ADME, cell-based, Erythrocyte; details: mouse red blood cells (erythrocytes), at 150 µg/mL, read-out: Activity
[15] = tested on: Staphylococcus aureus; assay: Antibacterial activity against methicillin resistant Staphylococcus aureus S-37 after 16 to 18 hrs by CLSI-based microbroth dilution method; format: functional; details: time 16-18 hrs
[16] = Cytotoxicity against mouse 3T3 cells assessed as reduction in cell viability at 75 ug/ml after 4 hrs by MTT assay (reference value: 90.42 +/- 0.03%); format: cell-based; details: 3t3, 4 h, at 75 µg/mL
[17] = tested on: Staphylococcus aureus; assay: Antibacterial activity against methicillin resistant Staphylococcus aureus S-34 after 16 to 18 hrs by CLSI-based microbroth dilution method; format: functional; details: time 16-18 hrs
[18] = tested on: Escherichia coli; assay: Antibacterial activity against Escherichia coli E-74 after 16 to 18 hrs by CLSI-based microbroth dilution method; format: functional; details: time 16-18 hrs
[19] = tested on: Escherichia coli; assay: Antibacterial activity against Escherichia coli E-59 after 16 to 18 hrs by CLSI-based microbroth dilution method; format: functional; details: time 16-18 hrs
[20] = tested on: Escherichia coli; assay: Antibacterial activity against Escherichia coli ATCC 11775 after 16 to 18 hrs by CLSI-based microbroth dilution method; format: functional; details: time 16-18 hrs
[21] = Hemolytic activity in mouse RBC at 75 ug/ml after 1 hr by microplate reader analysis relative to control; format: ADME, cell-based, Erythrocyte; details: mouse red blood cells (erythrocytes), at 75 µg/mL, read-out: Activity
[22] = tested on: Cell membrane; assay: Induction of cytoplasmic membrane depolarization in methicillin resistant Staphylococcus aureus ATCC 33591 at 5 times MIC by [DiSC3(5)] probe based fluorescence assay relative to control; format: subcellular; details: time 2.0 hrs
[23] = tested on: Cell membrane; assay: Induction of cell membrane damage in Staphylococcus aureus ATCC 33591 assessed as membrane surface perturbation with multiple dent and bleb formation at 5 times MIC after 4 hrs by scanning electron microscopy; format: subcellular
[24] = tested on: Staphylococcus aureus; assay: Antibacterial activity against methicillin resistant Staphylococcus aureus ATCC S-28 after 16 to 18 hrs by CLSI-based microbroth dilution method; format: functional; details: time 16-18 hrs
[25] = tested on: Staphylococcus aureus; assay: Bactericidal activity against methicillin-resistant Staphylococcus aureus assessed as in viable cells at 5 times MIC measured after 1 hr by time-kill assay; format: functional
[26] = tested on: Staphylococcus aureus; assay: Bactericidal activity against methicillin-resistant Staphylococcus aureus assessed as reduction in viable count at 5 times MIC measured upto 4 hrs by time-kill assay; format: functional; details: time hrs <=4

SMILES	MIC [1] [µg/mL]	MIC [2] [µg/mL]	viability at 4 h, 150 ug/ml [3] [%]	Activity [4] [%]	Activity [5]	MIC [6] [µg/mL]	MIC [7] [µg/mL]	MIC [8] [µg/mL]	MIC [9] [µg/mL]	MIC [10] [µg/mL]	Activity [11] [log10CFU/ml]	Activity [13] [%]	hemolysis at 1 h, 150 ug/ml [14] [%]	MIC [15] [µg/mL]	Activity [16] [%]	MIC [17] [µg/mL]	MIC [18] [µg/mL]	MIC [19] [µg/mL]	MIC [20] [µg/mL]	MIC [24] [µg/mL]	other results
COc1cc(/C=C2\CC/C(=C\c3ccc(OCCCN4CCCCCC4)c(OC)c3)C2=O)ccc1OCCCN1CCCCCC1.Cl.Cl	32	16	14.8	93.2	Active	2	8	8	8	4	3.91	80.6	9.32	8	7.03	8	32	32	16	8	Activity [12]: Active; hemolysis at 1 h, 75 ug/ml [21]: 6.19%; Activity [22]: 95.7%; Activity [23]: Active
CC[C@H](C)CCCCC(=O)N[C@@H](CCN)C(=O)N[C@H](C(=O)N[C@@H](CCN)C(=O)N[C@H]1CCNC(=O)[C@H]([C@@H](C)O)NC(=O)[C@H](CCN)NC(=O)[C@H](CCN)NC(=O)[C@H](CC(C)C)NC(=O)[C@@H](Cc2ccccc2)NC(=O)[C@H](CCN)NC1=O)[C@@H](C)O (X1-[Dab]T[Dab][Dab][Dab][dF]L[Dab][Dab]T; lactam 4-C)	1 (≈ 0.831 µM)	0.5 (≈ 0.415 µM)															1 (≈ 0.831 µM)	1 (≈ 0.831 µM)	0.5 (≈ 0.415 µM)		
CCOc1cc(/C=C2\CC/C(=C\c3ccc(OCCCN4CCCC(C)C4)c(OCC)c3)C2=O)ccc1OCCCN1CCCC(C)C1.Cl.Cl (stereo not given)	16	8	14.8	92.7	Active	2	8	8	8	4	3.99	60.2	9.32	8	7.03	8	32	32	8	8	Activity [25]: -3.4 log10CFU/ml; hemolysis at 1 h, 75 ug/ml [21]: 6.19%; Activity [22]: 87%; Activity [23]: Active
COc1cc(/C=C2\CC/C(=C\c3ccc(OCCCCN4CCCCCC4)c(OC)c3)C2=O)ccc1OCCCCN1CCCCCC1.Cl.Cl	32	16	14.8	89	Active	2	8	8	8	4	3.23	69.7	9.32	16	7.03	16	32	32	16	8	hemolysis at 1 h, 75 ug/ml [21]: 6.19%; Activity [22]: 90.7%; Activity [23]: Active
COc1cc(/C=C/C(=O)CC(=O)/C=C/c2ccc(O)c(OC)c2)ccc1O [CURCUMIN]						> 256				> 256											
Cc1onc(-c2ccccc2)c1C(=O)N[C@@H]1C(=O)N2[C@@H]1SC(C)(C)[C@@H]2C(=O)O [OXACILLIN]						0.5 (≈ 1.25 µM)	128 (≈ 319 µM)	128 (≈ 319 µM)	128 (≈ 319 µM)	64 (≈ 159 µM)				128 (≈ 319 µM)		128 (≈ 319 µM)				128 (≈ 319 µM)	
Cl.Cl.O=C1/C(=C/c2ccc(OCCCCN3CCCCCC3)cc2)CC/C1=C\c1ccc(OCCCCN2CCCCCC2)cc1	16	16	14.8	90.3	Active	4	4	8	8	4	3	76.6	9.32	8	7.03	8	32	32	16	4	Activity [26]: 4.3 log10CFU/ml; hemolysis at 1 h, 75 ug/ml [21]: 6.19%; Activity [22]: 95.7%; Activity [23]: Active
CN[C@H](CC(C)C)C(=O)N[C@H]1C(=O)N[C@@H](CC(N)=O)C(=O)N[C@H]2C(=O)N[C@H]3C(=O)N[C@H](C(=O)N[C@H](C(=O)O)c4cc(O)cc(O)c4-c4cc3ccc4O)[C@H](O)c3ccc(c(Cl)c3)Oc3cc2cc(c3O[C@@H]2O[C@H](CO)[C@@H](O)[C@H](O)[C@H]2O[C@H]2C[C@](C)(N)[C@H](O)[C@H](C)O2)Oc2ccc(cc2Cl)[C@H]1O [VANCOMYCIN]	128 (≈ 88.3 µM)	64 (≈ 44.2 µM)															128 (≈ 88.3 µM)	128 (≈ 88.3 µM)	64 (≈ 44.2 µM)		
